Measurements from paper PMC3594701 (Journal of acquired immune deficiency syndromes (1999), 2011).
“Also recorded” adds a separate entry of the source. Blank lines part the entries; values can stand above or below the compound they belong to.

Columns and labels:
[1] = IC accumulation: ratio of IC drug to drug in plasma; conditions: human, oral, GM IC to Plasma Ratio
[2] = Steady-state plasma pharmacokinetics; format: in vivo, human; conditions: for Cmax / concentration at 24 h: human; for Cmax: GM Cmax; for concentration at 24 h: GM Ctrough
[3] = Steady-state intracellular; format: in vivo, human; conditions: IC (PBMC); for GM AUC (darunavir, ritonavir) / GM AUC: AUC0–24; for Cmax / concentration at 24 h: human, oral; for Cmax: GM Cmax; for concentration at 24 h: GM Ctrough
[4] = PBMC (intracellular)/plasma, Cmax, group 1, period 3 (day 49): darunavir/ritonavir 800/100 mg once daily, without raltegravir
[5] = PBMC (intracellular)/plasma, Cmax, group 2, period 3 (day 49): darunavir/ritonavir 800/100 mg once daily, without raltegravir
[6] = PBMC (intracellular)/plasma, Ctrough, group 1, period 3 (day 49): darunavir/ritonavir 800/100 mg once daily, without raltegravir
[7] = PBMC (intracellular)/plasma, Ctrough, group 2, period 3 (day 49): darunavir/ritonavir 800/100 mg once daily, without raltegravir
[8] = intracellular (PBMC) / plasma, AUC (darunavir, ritonavir), group 1, period 2 (day 35): darunavir/ritonavir 800/100 mg once daily + raltegravir 400 mg twice daily
[9] = intracellular (PBMC) / plasma, AUC (darunavir, ritonavir), group 2, period 2 (day 35): darunavir/ritonavir 800/100 mg once daily + raltegravir 800 mg once daily
[10] = intracellular (PBMC) / plasma, AUC, group 1, period 3 (day 49): darunavir/ritonavir 800/100 mg once daily, without raltegravir
[11] = intracellular (PBMC) / plasma, AUC, group 2, period 3 (day 49): darunavir/ritonavir 800/100 mg once daily, without raltegravir
[12] = intracellular (PBMC) / plasma, Cmax, group 1, period 2 (day 35): raltegravir 400 mg twice daily + darunavir/ritonavir 800/100 mg once daily
[13] = intracellular (PBMC) / plasma, Cmax, group 2, period 2 (day 35): raltegravir 800 mg once daily + darunavir/ritonavir 800/100 mg once daily
[14] = intracellular (PBMC) / plasma, Ctrough, group 1, period 2 (day 35): raltegravir 400 mg twice daily + darunavir/ritonavir 800/100 mg once daily
[15] = intracellular (PBMC) / plasma, Ctrough, group 2, period 2 (day 35): raltegravir 800 mg once daily + darunavir/ritonavir 800/100 mg once daily
[16] = group 1, period 2 (day 35): raltegravir 400 mg twice daily + darunavir/ritonavir 800/100 mg once daily
[17] = group 1, period 3 (day 49): darunavir/ritonavir 800/100 mg once daily, without raltegravir
[18] = group 2, period 3 (day 49): darunavir/ritonavir 800/100 mg once daily, without raltegravir
[19] = oral, group 1, period 3 (day 49): darunavir/ritonavir 800/100 mg once daily, without raltegravir
[20] = oral, group 2, period 3 (day 49): darunavir/ritonavir 800/100 mg once daily, without raltegravir
[21] = PBMC, group 2, period 2 (day 35): raltegravir 800 mg once daily + darunavir/ritonavir 800/100 mg once daily

Kp [1, 4]: 6.8
Kp [1, 5]: 4.8
Kp [1, 6]: 4.8
Kp [1, 7]: 4.4
Kp [1, 8]: 5.3
Kp [1, 9]: 5.6
Kp [1, 10]: 5.3
Kp [1, 11]: 4.9
Kp [1, 12]: 6.8
Kp [1, 13]: 6.3
Kp [1, 14]: 4.4
Kp at 24 h [1, 15]: 4.3
Compound: CC(C)CN(C[C@@H](O)[C@H](Cc1ccccc1)NC(=O)O[C@H]1CO[C@H]2OCC[C@H]21)S(=O)(=O)c1ccc(N)cc1 [Darunavir, darunavir]

GM AUC (darunavir, ritonavir) ([2]; group 1, period 2 (day 35): darunavir/ritonavir 800/100 mg once daily + raltegravir 400 mg twice daily, AUC0–24): 4299 ng/h/mL
GM AUC (darunavir, ritonavir) ([2]; group 1, period 2 (day 35): darunavir/ritonavir 800/100 mg once daily + raltegravir 400 mg twice daily, AUC0–24, listed as ritonavir): 4299 (3823–5176) ng·h^−1·mL^−1
GM Ctrough [2, 16]: 0.048 µg/mL
GM Ctrough [2, 17]: 0.044 µg/mL
GM AUC ([2]; group 1, period 3 (day 49): darunavir/ritonavir 800/100 mg once daily, without raltegravir, AUC0–24): 4568 ng/h/mL
GM AUC ([2]; group 1, period 3 (day 49): darunavir/ritonavir 800/100 mg once daily, without raltegravir, AUC0–24, listed as ritonavir): 4568 (4070–5427) ng·h^−1·mL^−1
GM AUC (darunavir, ritonavir) ([2]; group 2, period 2 (day 35): darunavir/ritonavir 800/100 mg once daily + raltegravir 800 mg once daily, AUC0–24): 4359 ng/h/mL
GM AUC (darunavir, ritonavir) ([2]; group 2, period 2 (day 35): darunavir/ritonavir 800/100 mg once daily + raltegravir 800 mg once daily, AUC0–24, listed as ritonavir): 4359 (3816–5443) ng·h^−1·mL^−1
GM Ctrough ([2]; group 2, period 2 (day 35): raltegravir 800 mg once daily + darunavir/ritonavir 800/100 mg once daily): 0.034 µg/mL
GM Ctrough [2, 18]: 0.036 µg/mL
GM AUC ([2]; group 2, period 3 (day 49): darunavir/ritonavir 800/100 mg once daily, without raltegravir, AUC0–24): 4516 ng/h/mL
GM AUC ([2]; group 2, period 3 (day 49): darunavir/ritonavir 800/100 mg once daily, without raltegravir, AUC0–24, listed as ritonavir): 4516 (3798–5986) ng·h^−1·mL^−1
Cmax [2, 16]: 0.483 µg/mL
Cmax [2, 19]: 0.528 µg/mL
Cmax [2, 20]: 0.527 µg/mL
concentration at 24 h [2, 19]: 0.044 µg/mL
concentration at 24 h ([2]; oral, group 2, period 2 (day 35): raltegravir 800 mg once daily + darunavir/ritonavir 800/100 mg once daily): 0.034 µg/mL
concentration at 24 h [2, 20]: 0.036 µg/mL
PK exposure parameters with versus without raltegravir ([2]; periods 2 and 3): comparable; also recorded: not affected
GM AUC (darunavir, ritonavir) ([3]; group 1, period 2 (day 35): darunavir/ritonavir 800/100 mg once daily + raltegravir 400 mg twice daily): 33,789 ng·h^−1·mL^−1
GM Ctrough [3, 16]: 0.458 µg/mL
GM AUC [3, 17]: 36,769 ng·h^−1·mL^−1
GM AUC (darunavir, ritonavir) ([3]; group 2, period 2 (day 35): darunavir/ritonavir 800/100 mg once daily + raltegravir 800 mg once daily): 28,683 ng·h^−1·mL^−1
GM AUC [3, 18]: 27,652 ng·h^−1·mL^−1
Cmax ([3]; PBMC (intracellular), group 1, period 3 (day 49): darunavir/ritonavir 800/100 mg once daily, without raltegravir): 4.04 µg/mL
Cmax ([3]; PBMC (intracellular), group 2, period 3 (day 49): darunavir/ritonavir 800/100 mg once daily, without raltegravir): 2.61 µg/mL
Cmax ([3]; PBMC, group 1, period 2 (day 35): raltegravir 400 mg twice daily + darunavir/ritonavir 800/100 mg once daily): 3.88 µg/mL
Cmax [3, 21]: 3.29 µg/mL
concentration at 24 h ([3]; PBMC, group 1, period 3 (day 49): darunavir/ritonavir 800/100 mg once daily, without raltegravir): 0.478 µg/mL
concentration at 24 h [3, 21]: 0.329 µg/mL
concentration at 24 h ([3]; PBMC, group 2, period 3 (day 49): darunavir/ritonavir 800/100 mg once daily, without raltegravir): 0.369 µg/mL
Kp [1, 4]: 13.5
Kp [1, 5]: 5.2
Kp [1, 6]: 11.7
Kp [1, 7]: 10.6
Kp [1, 8]: 10
Kp [1, 9]: 6.9
Kp [1, 10]: 9.5
Kp [1, 11]: 6.5
Kp [1, 12]: 13.8
Kp [1, 13]: 5.7
Kp [1, 14]: 12
Kp at 24 h [1, 15]: 10.1
Compound: CC(C)c1nc(CN(C)C(=O)N[C@H](C(=O)N[C@@H](Cc2ccccc2)C[C@H](O)[C@H](Cc2ccccc2)NC(=O)OCc2cncs2)C(C)C)cs1 [Ritonavir, ritonavir]
